Laboratory results: patent publication US9593146B2, “CD44v6-derived peptides for treating metastasizing cancer” (AMCURE GMBH, priority 2012, dated 2017)

Columns and labels:
[1] = system: L3.6pl cells; assay: Human orthotopic model of pancreatic cancer, L3.6pl cells in nude mice; assay type: in vivo
Protocol: In the case of the human orthotopic model, L3.6pl pancreatic carcinoma cells (passage 24-26) were suspended in Hank's balanced salt solution (Invitrogen, Karlsruhe, Germany) after trypsinization. The cells were injected orthotopically in the pancreas of male nude mice as described (Bruns C J et al. (1999) Neoplasia 1(1):50-62). Two groups of 15 mice each were injected i.p. 7 days later with either the human v6 peptide respectively rat control peptide (20 μg). For all experiments described and depicted herein either the rat 14mer control peptide or the human 14mer peptide were used. All experiments were then repeated with the rat 5mer control peptide or the human 5mer peptide (N-R-W-H-E, SEQ ID NO: 2). […] The injection was repeated three times per week for 21 days. Two days after the last treatment the animals were killed. […]
A comparison of different CD44v6 peptide derivatives was performed in animals bearing a orthotopic L3.6pl tumor. 10 groups of 5 animals each received a dose of 20 μg peptide per injection three times per week for 3 weeks with the compounds listed in Table 4. Three weeks after starting the treatment the animals were sacrificed and analyzed for macroscopic metastases and tumor volume.

[2] = system: Met; assay: HGF induced activation of Met and Erk in L3.6pl, HeLa and HT29 cells; assay type: cell-based, human; conditions: added before induction with HGF
Protocol: FIG. 14: A: Activation of Met and signal transduction induced by HGF depends on CD44v6 in L3.6pl cells. L3.6pl cells were treated with the human v6 peptide (human v6 14mer) or the rat v6 peptide as control prior to induction with 10 ng/ml HGF. Activation of Met and ERK was determined in western blot. The numbers refer to the fold induction. The experiment was repeated at least 5 times. B: Activation of c-Met and signal transduction induced by HGF depends on CD44v6 HeLa cells. Starved HeLa cells respectively HT29 cells were incubated with the v6 peptide (human v6 14mer) or a control peptide for 10 minutes at 37° C. and then induced with 25 ng/ml of HGF for the indicated time points. Cells were then either lysed and the lysates were subjected to Western Blot analysis for phospho-Met and Met. C: Activation of c-Met and signal transduction induced by HGF depends on CD44v6 in HT29 cells. HGF-induced c-Met and Erk phosphorylation in HT29 was determined as described above using phospho-specific antibodies. […]
The contribution of CD44v6 to Met signaling in the human epithelial pancreatic cancer cells L3.6pl (derived from Colo 357), the cervix carcinoma cells HeLa and the colon cancer cells HT29 were analysed using the CD44v6 peptide (v6 14mer; v6 5mer tested as well, data not shown).

[3] = system: APC/Min/+ mice; assay: APC/Min/+ mouse model, tumors in the duodenum; assay type: in vivo
Protocol: The effect of the v6 14mer was tested in the APC/Min/+ model model using 18 week old mice. The animals received an i.p. injection of 20 μg of v6 14mer (mouse 14mer) or control peptide (rat 14mer) three times per week for 6 weeks. Animals (three per group) were sacrificed at the end of the experiment and the duodenum was analyzed for the total number of tumors (FIG. 25).

[4] = system: Met; assay: HGF induced activation of Met and Erk in endothelial cells; assay type: cell-based, human; conditions: HUVEC, HAOEC and HCMEC; added before induction with HGF
Protocol: FIG. 12: CD44v6 is required for activation of Met and downstream signaling in several ECs. Different ECs (HUVEC, HAOEC and HCMEC) were serum starved and incubated with several reagents (aCD44v6, v6 14mer and the controls IgG and ctrl pep). The growth factor HGF was added and the cells were lysed. The proteins in the cell lysates were separated by SDS-PAGE and subjected to Western blot analysis. Activation of Met and of its downstream target Erk was detected by means of phospho-specific antibodies that detect phosphorylated forms of Met and Erk. In order to check equal loading of the different samples the membrane was incubated with stripping solution and reprobed with antibodies recognising all Met and Erk proteins. The numbers indicate the fold induction as calculated with the computer programme ImageJ.
When these ECs were treated with HGF, the receptor tyrosine kinase Met was phosphorylated and signaling to Erk—a downstream target of Met—was promoted (FIG. 12). The contribution of CD44v6 to Met signaling in these cells was analysed using different tools.

[5] = 20 μg i.p. three times per week for three weeks, start 7 days after implantation

With “KEQWFGNRWHEGYR [human 14mer, human CD44v6 14mer peptide]” the “metastatic spreading at 10 μg” value ([1]; 10 μg per injection, three times per week for 3 weeks) was “complete inhibition of metastatic spreading”, the “tumor angiogenesis (vessel number and vessel size, CD31)” value ([1]; 20 μg i.p. three times per week for three weeks) was “decreased angiogenesis” and the “Met activation in the tumor (phospho-Met immunofluorescence)” value [1, 5] was “completely repressed Met activation”. The “outgrowth of the primary tumor in the pancreas” value [1, 5] was “strongly repressed”, the “metastasis formation (liver)” value ([1]; 20 μg i.p. three times per week for three weeks, start 7 days after implantation, listed as SEQ ID No.: 6) was “capable of inhibiting metastasis” and the “metastasis formation (liver)” value ([1]; 20 μg i.p. three times per week for three weeks, start 7 days after implantation, listed as human-specific peptide) was “completely inhibited metastasis formation within the liver”. For the same sequence, the “reduction of tumor size, ranking (side-by-side comparison)” value ([1]; 20 μg per injection three times per week for 3 weeks (FIG. 23A)) was “strongest reduction of tumor size”, the “variability in the individual tumor size within the group” value ([1]; 20 μg per injection three times per week for 3 weeks (FIG. 23B)) was “low variability” and the “metastatic spreading to the liver (side-by-side comparison)” value ([1]; 20 μg per injection three times per week for 3 weeks (FIG. 24)) was “complete inhibition of metastasis”. For the same sequence, the “tumor growth compared to the control peptide (side-by-side comparison)” value ([1]; 20 μg per injection three times per week for 3 weeks, 5 animals per group) was “significant reduction in tumor growth”, the “liver metastases at 0.2 and 2 μg” value ([1]; 0.2 and 2 μg per injection, three times per week for 3 weeks) was “showed liver metastases but the average number of metastases per animal was reduced” and the “size / growth of the primary tumor (dose reduction study)” value ([1]; three injections per week for 3 weeks, compared to control groups (FIG. 22C)) was “significant decrease of the size of the primary tumor”. The “activation of Met and of its downstream target Erk” value [2] was “able to prevent activation of Met and of its downstream target Erk”, the “number of tumors in the duodenum” value ([3]; i.p. injection for 6 weeks (FIG. 25)) was “reduces the number of tumors in the duodenum” and the “decrease according to the size of the tumor” value ([3]; mouse 14mer 20 μg i.p. three times per week for 6 weeks) was “more pronounced in case of small tumors (0-1 mm>1-2 mm>2-5 mm)”. For the same sequence, the “tumor size in the duodenum” value ([3]; mouse 14mer 20 μg i.p. three times per week for 6 weeks, 18 week old mice, preliminary data) was “strong decrease of the tumor size in the duodenum”, the “tumor number for tumors bigger than 5 mm” value ([3]; mouse 14mer 20 μg i.p. three times per week for 6 weeks, versus control peptide) was “higher” and the “activation of Met and of its downstream target Erk” value [4] was “able to prevent activation of Met and of its downstream target Erk”.
